Experimental data reported in PubChem BioAssay AID248 (DTP/NCI, 2004).
“And” between values parts separate entries of the source, which are not always exact repeats. Identical values can stand only once. Inconclusive results and toxic doses are left out. No stated cut-off is given here; in the data, active means T/C of 150% or more; inactive means T/C below 125%.

Tested on: L1210 leukemia ip in BDF1 mice, survival T/C
Assay: NCI In Vivo Anticancer Drug Screen. Data for tumor model L1210 Leukemia (intraperitoneal) in B6D2F1 (BDF1) mice
Conditions: endpoint: mean survival time, higher = longer survival
How it was run: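 Tumor was transplanted into mice, which were then dosed with test compound or vehicle alone. Survival was recorded for each group, and the treated figure was expressed relative to the control figure.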

[1] = dose: 100.0 mg/kg/injection, schedule: Q01DX001 (ip), vehicle: saline
[2] = dose: 200.0 mg/kg/injection, schedule: Q01DX001 (ip), vehicle: saline
[3] = dose: 400.0 mg/kg/injection, schedule: Q01DX001 (ip), vehicle: saline
[4] = dose: 100.0 mg/kg/injection, schedule: Q04DX003 (ip), vehicle: saline with Tween-80
[5] = dose: 200.0 mg/kg/injection, schedule: Q04DX003 (ip), vehicle: saline with Tween-80
[6] = dose: 400.0 mg/kg/injection, schedule: Q04DX003 (ip), vehicle: saline with Tween-80
[7] = dose: 50.0 mg/kg/injection, schedule: Q01DX009 (ip), vehicle: saline
[8] = dose: 100.0 mg/kg/injection, schedule: Q01DX009 (ip), vehicle: saline
[9] = dose: 100.0 mg/kg/injection, schedule: Q04DX002 (ip), vehicle: Klucel (hydroxypropylcellulose) (HPC)
[10] = dose: 200.0 mg/kg/injection, schedule: Q04DX002 (ip), vehicle: Klucel (hydroxypropylcellulose) (HPC)
[11] = dose: 400.0 mg/kg/injection, schedule: Q04DX002 (ip), vehicle: Klucel (hydroxypropylcellulose) (HPC)
[12] = dose: 100.0 mg/kg/injection, schedule: Q01DX009 (ip), vehicle: saline with Tween-80
[13] = dose: 200.0 mg/kg/injection, schedule: Q01DX009 (ip), vehicle: saline with Tween-80
[14] = dose: 50.0 mg/kg/injection, schedule: Q01DX001 (ip), vehicle: saline
[15] = dose: 100.0 mg/kg/injection, schedule: Q01DX009 (ip), vehicle: Klucel (hydroxypropylcellulose) (HPC)
[16] = dose: 200.0 mg/kg/injection, schedule: Q01DX009 (ip), vehicle: Klucel (hydroxypropylcellulose) (HPC)
[17] = dose: 400.0 mg/kg/injection, schedule: Q01DX009 (ip), vehicle: Klucel (hydroxypropylcellulose) (HPC)

Measured: T/C

CO[C@@H]1[C@@H](OC2OC(C)C(OC3CC(C)(O)C(OC(=O)CC(C)C)C(C)O3)C(N(C)C)C2O)[C@@H](CC=O)C[C@@H](C)C(=O)/C=C/C2O[C@H]2C[C@@H](C)OC(=O)C[C@H]1OC(C)=O (stereo partly drawn)
inactive: dose: 50.0 mg/kg/injection, schedule: Q01DX Z (ip), vehicle: other 103 % of control | dose: 100.0 mg/kg/injection, schedule: Q01DX001 (ip), vehicle: water 108 % of control | dose: 100.0 mg/kg/injection, schedule: Q01DX015 (ip), vehicle: water 102 % of control | dose: 100.0 mg/kg/injection, schedule: Q01DX Z (ip), vehicle: other 110 % of control | dose: 100.0 mg/kg/injection, schedule: Q#A X030 (ip), vehicle: water 108 % of control and 92 % of control | dose: 150.0 mg/kg/injection, schedule: Q01DX Z (ip), vehicle: other 105 % of control | dose: 150.0 mg/kg/injection, schedule: Q#A X030 (ip), vehicle: water 97 % of control | dose: 200.0 mg/kg/injection, schedule: Q01DX001 (ip), vehicle: water 106 % of control | dose: 200.0 mg/kg/injection, schedule: Q01DX015 (ip), vehicle: water 118 % of control | dose: 200.0 mg/kg/injection, schedule: Q01DX Z (ip), vehicle: methylcellulose (MC) 118 % of control | dose: 200.0 mg/kg/injection, schedule: Q01DX Z (ip), vehicle: other 105 % of control | dose: 200.0 mg/kg/injection, schedule: Q#A X030 (ip), vehicle: water 118 % of control | dose: 250.0 mg/kg/injection, schedule: Q01DX Z (ip), vehicle: methylcellulose (MC) 118 % of control | dose: 250.0 mg/kg/injection, schedule: Q01DX Z (ip), vehicle: other 115 % of control | dose: 300.0 mg/kg/injection, schedule: Q01DX015 (ip), vehicle: water 101 % of control and 118 % of control | dose: 300.0 mg/kg/injection, schedule: Q01DX Z (ip), vehicle: methylcellulose (MC) 116 % of control | dose: 350.0 mg/kg/injection, schedule: Q01DX Z (ip), vehicle: methylcellulose (MC) 116 % of control | dose: 400.0 mg/kg/injection, schedule: Q01DX001 (ip), vehicle: water 101 % of control | dose: 400.0 mg/kg/injection, schedule: Q01DX015 (ip), vehicle: water 87 % of control | dose: 600.0 mg/kg/injection, schedule: Q01DX001 (ip), vehicle: water 110 % of control

Nc1cccc(C(=O)NO)c1
inactive: [1] 98 % of control | [2] 103 % of control | [3] 97 % of control

CN(C)Cc1ccnc(Cl)n1
inactive: dose: 2.0 mg/kg/injection, schedule: Q01DX Z (ip), vehicle: methylcellulose (MC) 93 % of control

N#Cc1ccc2cn[nH]c2c1
inactive: [4] 92 % of control | [5] 101 % of control | [6] 99 % of control

CC(C)(N)CNC(C)(C)CO
inactive: [7] 102 % of control | [8] 102 % of control

O=C(O)c1cccc2nc3ccccc3nc12
inactive: [9] 100 % of control | [10] 102 % of control | [11] 96 % of control

CCCCCCCC[Se]CCCCCCCC
inactive: [4] 111 % of control | [5] 103 % of control | [6] 103 % of control

O=S(=O)(N=S(CCCl)CCCl)c1ccccc1
inactive: [9] 111 % of control | [10] 111 % of control

CCOC(=O)c1c[nH]n2c(=S)ncnc12
inactive: [12] 96 % of control | [4] 98 % of control | [13] 97 % of control | [5] 104 % of control | [6] 102 % of control

CC(C)CC(C)(CC(C)C)C(=O)O
inactive: [1] 100 % of control | [2] 100 % of control | [3] 102 % of control

Nc1nc(N)c(-c2ccc(Cl)c(Cl)c2)c(COc2ccc(NC(=O)Nc3ccc(S(=O)(=O)F)c(Cl)c3)c(Cl)c2)n1
inactive: dose: 75.0 mg/kg/injection, schedule: Q01DX001 (ip), vehicle: saline with Tween-80 90 % of control | dose: 150.0 mg/kg/injection, schedule: Q01DX001 (ip), vehicle: saline with Tween-80 98 % of control

Cc1nn(C2CC(O)C(O)C(CO)O2)c(=O)[nH]c1=O (stereo not drawn)
inactive: [14] 93 % of control | [1] 96 % of control | [8] 92 % of control | [2] 104 % of control | dose: 200.0 mg/kg/injection, schedule: Q01DX009 (ip), vehicle: saline 95 % of control | [3] 98 % of control | dose: 400.0 mg/kg/injection, schedule: Q01DX009 (ip), vehicle: saline 98 % of control

Cc1ccc(S(=O)(=O)N(CCCc2c(C)ncnc2Cl)c2ccccc2)cc1
inactive: [14] 101 % of control | [1] 92 % of control | [2] 98 % of control | [3] 95 % of control

CC1=NNC(c2ccco2)C1 (stereo not drawn)
inactive: [1] 91 % of control | [2] 94 % of control | [3] 100 % of control

Nc1nc2c(c(=O)[nH]1)N=C(CNc1ccc(C(=O)NC(CCC(=O)O)C(=O)O)cc1)CN2 (stereo not drawn)
inactive: dose: 2.0 mg/kg/injection, schedule: Q01DX009 (ip), vehicle: sodium bicarbonate 109 % of control | dose: 4.0 mg/kg/injection, schedule: Q01DX009 (ip), vehicle: sodium bicarbonate 115 % of control | dose: 8.0 mg/kg/injection, schedule: Q01DX009 (ip), vehicle: sodium bicarbonate 116 % of control | dose: 16.0 mg/kg/injection, schedule: Q01DX009 (ip), vehicle: sodium bicarbonate 115 % of control

N#CC(C#N)=C(C#N)c1cccn1Cc1ccccc1
inactive: dose: 87.5 mg/kg/injection, schedule: Q01DX009 (ip), vehicle: carboxymethylcellulose (CMC) 96 % of control | dose: 175.0 mg/kg/injection, schedule: Q01DX009 (ip), vehicle: carboxymethylcellulose (CMC) 95 % of control | dose: 350.0 mg/kg/injection, schedule: Q01DX009 (ip), vehicle: carboxymethylcellulose (CMC) 90 % of control

NC(=O)C(NC(=O)c1ccc([N+](=O)[O-])cc1)SCc1ccccc1 (stereo not drawn)
inactive: dose: 100.0 mg/kg/injection, schedule: Q04DX002 (ip), vehicle: gum acacia 96 % of control | dose: 200.0 mg/kg/injection, schedule: Q04DX002 (ip), vehicle: gum acacia 90 % of control | dose: 400.0 mg/kg/injection, schedule: Q04DX002 (ip), vehicle: gum acacia 86 % of control

CCN(CC)CC(=O)NCC(C)(CCN1CCCCC1)c1cccc2ccccc12 (stereo not drawn)
inactive: dose: 25.0 mg/kg/injection, schedule: Q01DX009 (ip), vehicle: saline 91 % of control | [7] 93 % of control | dose: 100.0 mg/kg/injection, schedule: Q04DX003 (ip), vehicle: saline 94 % of control

CC[N+](C)(C)CC(C)C
inactive: dose: 75.0 mg/kg/injection, schedule: Q01DX001 (ip), vehicle: saline 104 % of control | dose: 150.0 mg/kg/injection, schedule: Q01DX001 (ip), vehicle: saline 107 % of control

CCC1(CC)CC1(Cl)Cl
inactive: dose: 75.0 mg/kg/injection, schedule: Q01DX001 (ip), vehicle: acetone 108 % of control | dose: 150.0 mg/kg/injection, schedule: Q01DX001 (ip), vehicle: acetone 101 % of control

O=C1CC(=P(c2ccccc2)(c2ccccc2)c2ccccc2)C(=O)N1c1ccccc1
inactive: dose: 50.0 mg/kg/injection, schedule: Q01DX009 (ip), vehicle: saline with Tween-80 100 % of control | [15] 94 % of control | [12] 100 % of control | [9] 106 % of control | [16] 102 % of control | [13] 100 % of control | [10] 109 % of control | [17] 94 % of control | [11] 98 % of control

CC(O)C(O)C(O)CO (stereo not drawn)
inactive: [1] 96 % of control | [2] 111 % of control | [3] 94 % of control

C1CCC2C(C1)CCCC2CCC1CCCC2CCCCC21 (stereo not drawn)
inactive: dose: 50.0 mg/kg/injection, schedule: Q04DX002 (ip), vehicle: saline with Tween-80 95 % of control | dose: 100.0 mg/kg/injection, schedule: Q04DX002 (ip), vehicle: saline with Tween-80 92 % of control | dose: 200.0 mg/kg/injection, schedule: Q04DX002 (ip), vehicle: saline with Tween-80 89 % of control | dose: 400.0 mg/kg/injection, schedule: Q04DX002 (ip), vehicle: saline with Tween-80 100 % of control

CCN(CC)c1cc(C)c2cc(Cc3ccc4nc(N(CC)CC)cc(C)c4c3)ccc2n1
inactive: [1] 90 % of control | [2] 96 % of control | [3] 90 % of control

NC(=O)C1(C(N)=O)CCC1
inactive: [15] 105 % of control | [16] 105 % of control | [17] 106 % of control

CC(C)(C)NC(=O)Nc1cccc(O)c1
inactive: [15] 95 % of control | [16] 100 % of control | [17] 104 % of control
